Where two headings read alike, the source gives them in different places.
How the values were obtained:
[1] = system: PDX14244 and PDX27454; experiment: Pancreatic PDX14244 (left flank) and colorectal PDX27454 (right flank) in the same SCID mice; type: in vivo
Protocol: Human xenograft tumors used.
The vehicle is the same aqueous suspension without FL7N-1. Experimental SCID mice were subcutaneously implanted with 30-40 mg individual PDX tumors (isolated from maintenance mice) at the flank area (left side for PDX14244, and right side for PDX27454) of SCID mice. […] The animal model of PDX tumors was orally treated weekly for 3 times as shown with black arrows. […] Thus, FL7N-1 may be a priority candidate to be developed for treatment of children rare disease retinoblastoma.
(§1) The vehicle is the same think aqueous suspension without drug. Experimental SCID mice were subcutaneously implanted with 30-40 mg individual PDX tumors (isolated from maintenance mice) at the flank area (left side for PDX14244, and right side for PDX27454) of SCID mice. […] The animal model of PDX tumors was orally treated weekly for 3 times as shown with black arrows.
as §1, with “for 4” for “for 3”, “times (one cycle/course,” for “times”, “black arrows).” for “black arrows.”
as §1, with “times in two doses due to drug limitation then (as” for “times as”, “black arrows).” for “black arrows.”

[2] = system: UOK262
Protocol: (§2) MTT assays. […] Viable cells (2500 cells per well) were plated in each well in 96-well plates. After an overnight incubation, cells were treated with and without relevant drugs alone and in combination, respectively, at various concentrations and incubated for 72 hours. MTT, a colorimetric substrate, was added to a final concentration of 0.4 mg/ml to each well. Cells in 96-well plates were further incubated in a 5% CO2 incubator at 37° C. for 4 hours, and then the medium was aspirated. The MTT metabolic product formazan was solubilized by adding 200 ul of DMSO to each well. Absorbance in the relevant wells was measured at 570 nm using an Ultra Microplate Reader (Bio-Tek Instruments). Each experiment was performed at least in triplicate. IC50/EC50 values were calculated from a series of drug dose ranges for each analyzed compound, using GraphPad Prism 6 (GraphPad Software, Inc., La Jolla, CA).
(§3) The inhibition of cell growth and viability in various cancer cell types were tested using MTT assay for references.

[3] = system: UOK151
Protocol: as §2, §3

[4] = system: H1376
Protocol: as §2, §3

[5] = system: UMUC-3
Protocol: as §2, §3

[6] = system: T24; experiment: MTT assay T24; type: cell-based; conditions: Table 5 lower part; T24 bladder cancer
Protocol: as §2, §3

[7] = system: RT4; experiment: MTT assay RT4; type: cell-based; conditions: Table 5 lower part; RT4 bladder cancer
Protocol: as §2, §3

[8] = system: HT-3 retinoblastoma xenograft tumors; conditions: for antitumor activity and toxicity profile / overall antitumor activity versus toxicity ranking: oral; for antitumor activity and toxicity profile: one time, 3-4 doses; for overall antitumor activity versus toxicity ranking: multiple doses, weekly×4
Protocol: Human HT-3 retinoblastoma xenograft tumors were initially established by subcutaneously injection of 2-5×10^6 HT-3 cells in a volume of 100-200 μL medium. Mouse models of HT-3 xenografts were set up by subcutaneously inoculating 30-40 mg tumor tissue on the flank of SCID mice. Treatment with individual compounds was initiated 7-14 days after the transplanted tumors reached 100-200 mm^3 (designated day 0). […] The individual compounds were formulated in an organic solvent-free with HPPCD as drug carriers in 2% HPMC (hydroxypropyl methylcellulose) and 1% PG (propylene glycol) in saline (a thick aqueous suspension) for oral administration. The vehicle is the same thick aqueous suspension without drug. A. FL7s-3-treated xenograft tumor curve profile (left panel) and body weight profile (right panel) over the experimental period. B. FL7s-4-treated xenograft tumor curve profile (left panel) and body weight profile (right panel) over the experimental period. C. FL7s-7-treated xenograft tumor curve profile (left panel) and body weight profile (right panel) over the experimental period.
(§4) Human xenograft tumors used. In this invention disclose, human SW620 (colorectal), HT29 (colorectal) and HT-3 (retinoblastoma) cancer cell line-established xenograft tumors were used. Human tumor cell line-derived xenograft tumors are initially established by subcutaneously injecting 2-5×10^6 cultured cancer cells in a volume of 100-150 p L medium into the flank area of severe combined immunodeficiency (SCID) mice. The derived tumors are then passed a couple of generations in mice by transplanting 30-50 mg non-necrotic tumor mass via a trocar for experiments or maintenance. […] PDX tumors were originally established on severe Combined Immunodeficiency (SCID) mice from pancreatic and colorectal cancer patient tumor tissues obtained from metastatic sites of the disease in the clinic.
To these three novel compounds, we performed in vivo animal model studies to evaluate their antitumor activity and toxicity using the HT-3 retinoblastoma xenograft tumor models. In this experiment, we still took advantage of the newly developed formulation for oral administration of compounds.

[9] = system: HCT116; experiment: MTT assay HCT116; type: cell-based, human; conditions: Table 8
Protocol: (§5) MTT assays. […] Each experiment was performed at least in triplicate.

[10] = system: Wer 127; experiment: MTT assay Wer 127; type: cell-based; conditions: Table 7
Protocol: as §5

[11] = system: Y79; experiment: MTT assay Y79; type: cell-based; conditions: Table 7
Protocol: as §5

[12] = system: HT-3; experiment: MTT assay HT-3; type: cell-based, human; conditions: Table 7; HT-3
Protocol: as §2, §3

[13] = system: A2008; experiment: MTT assay A2008; type: cell-based; conditions: Table 9; A2008
Protocol: as §2, §3

[14] = system: A549; experiment: MTT assay A549; type: cell-based, human; conditions: Table 9
Protocol: as §5

[15] = system: SW620 xenograft tumors; conditions: oral weekly for 1-2 times
Source text: as §4
Human SW620 xenograft tumors were initially established by subcutaneously injection of 2-5×10^6 SW620 cells in a volume of 100-150 μL medium. Mouse models of SW620 xenografts were set up by subcutaneously inoculating 30-40 mg tumor tissue (isolated from tumor maintenance SCID mice) on the flank of SCID mice. Treatment with individual compounds was initiated 7-14 days after the transplanted tumors reached 100-200 mm^3 (designated day 0). The treatment schedule is weekly for 1-2 times in a series of dose levels based on the available drug amounts then. The individual compounds were formulated in an organic solvent-free with HPβCD in 2% HPMC (hydroxypropyl methylcellulose) and 1% PG (propylene glycol) in saline (a thick aqueous suspension) for oral administration. The vehicle is the same thick aqueous suspension without drug.

[16] = system: PDX10978; experiment: Pancreatic cancer PDX10978 in SCID mice; type: in vivo; conditions: FL118 0.75 mg/kg or gemcitabine 60 mg/kg ip qw×4
Protocol: Human pancreatic cancer patient-derived xenograft (PDX) tumor mouse model and treatment. Experiments followed the IACUC-approved mouse protocol. Briefly, human PDAC PDX tumors maintained on SCID mice were isolated, and a piece of non-necrotic tumor tissues (30-40 mg) were subcutaneously transplanted into the flank area of female SCID mice. […] In this study, we used the timesaving intraperitoneal (ip) route for drug administration. […] The formulation process was described in detail in our previous patent (PCT/US2011/058558). […] Tumor length (L) and width (W) were measured using digital vernier calipers 1-3 times per week until the end of experimental studies. The tumor volume (v) was calculated using the formula: v=0.5 (L×W^2). Then the tumor size was divided by the day 0 tumor size as percentage tumor size versus day 0. The mean tumor volume ± standard deviation (SD) at each time point was derived from 5 mice in each group. The tumor curves were made using Sigma Plot software.
It has been recently documented that pancreatic cancer PDXs retain active paracrine/Hedgehog signaling, and desmoplasia is active in PDX tumor mouse models.

[17] = oral one time, 5, 10 and 15 mg/kg

CC[C@@]1(O)C(=O)OCc2c1cc1n(c2=O)Cc2c-1nc1cc3c(cc1c2-c1ccc(OC)cc1)OCO3 [7Q 9]
antitumor activity, 7Q-series (1) ([1]; oral weekly for 4 times): much higher antitumor activity than the other compounds in this 7Q-series (1)
IC50/EC50 ([2]; Table 5 lower part, UOK262 kidney cancer): 32 nM
IC50/EC50 ([3]; Table 5 lower part, UOK151 kidney cancer): 50 nM
IC50/EC50 ([4]; Table 5 lower part, H1376 bladder cancer): >500 nM
IC50/EC50 ([5]; Table 5 lower part, UMUC-3 bladder cancer): 0.35 nM
IC50/EC50 [6]: 0.32 nM
IC50/EC50 [7]: 3.37 nM

CC[C@@]1(O)C(=O)OCc2c1cc1n(c2=O)Cc2c-1nc1cc3c(cc1c2CCN1CCOCC1)OCO3 [Compound 7N1, 20 (S)-7-morpholinylethyl-10,11-methylenedioxy-camptothecin]
antitumor activity ([1]; oral weekly for 3 times): very good
IC50/EC50 ([2]; Table 8, UOK262): 38 nM
IC50/EC50 ([3]; Table 8, UOK151): 42.8 nM
IC50/EC50 ([4]; Table 8, H1376): >500 nM
IC50/EC50 ([5]; Table 8, UMUC-3): 2.05 nM
antitumor activity [8, 17]: exceptional antitumor activity in all three doses used
toxicity (mouse body weight loss) [8, 17]: without showing toxicity
antitumor activity and toxicity profile [8]: great antitumor activity and favorable toxicity profiles
IC50/EC50 [9]: 11.6 nM

CC[C@@]1(O)C(=O)OCc2c1cc1n(c2=O)Cc2c-1nc1cc3c(cc1c2CCN1CCCCC1C)OCO3 (stereo partly drawn) [Compound 7N2]
antitumor activity and toxicity profile [8]: great antitumor activity and favorable toxicity profiles
IC50/EC50 [9]: 25.62 nM

CC[C@@]1(O)C(=O)OCc2c1cc1n(c2=O)Cc2c-1nc1cc3c(cc1c2CCN1CCSCC1)OCO3 [Compound 7N3, 20 (S)-7-thiomorpholinylethyl-10,11-methylenedioxy-camptothecin]
antitumor activity and toxicity profile [8]: great antitumor activity and favorable toxicity profiles
IC50/EC50 [9]: 171.9 nM

CC[C@@]1(O)C(=O)OCc2c1cc1n(c2=O)Cc2c-1nc1cc3c(cc1c2CCc1ccc(Br)cc1)OCO3 [FL7-17, 20 (S)-7-(4-bromo-phenethyl)-10,11-methylenedioxy-camptothecin]
IC50/EC50 [10]: 2.48 nM
IC50/EC50 [11]: 1.57 nM
overall antitumor activity versus toxicity ranking [8]: not as good as FL7-5 and FL7-14
IC50/EC50 [12]: 6.48 nM

CC[C@@]1(O)C(=O)OCc2c1cc1n(c2=O)Cc2c-1nc1cc3c(cc1c2/C=C/c1ccc(F)cc1)OCO3 [FL7s-3]
IC50/EC50 [10]: 40.69 nM
IC50/EC50 [11]: 0.61 nM
overall antitumor activity versus toxicity ranking [8]: top two candidates
IC50/EC50 [12]: 1.68 nM

CC[C@@]1(O)C(=O)OCc2c1cc1n(c2=O)Cc2c-1nc1cc3c(cc1c2CCc1cccc(F)c1)OCO3 [FL7s-7]
IC50/EC50 [10]: 4.76 nM
IC50/EC50 [11]: 0.29 nM
overall antitumor activity versus toxicity ranking [8]: top two candidates
IC50/EC50 [12]: 2.22 nM

CC[C@@]1(O)C(=O)OCc2c1cc1n(c2=O)Cc2c-1nc1cc3c(cc1c2-c1ccc(F)c(F)c1)OCO3 [HX6]
antitumor activity and toxicity, Hx-series ([1]; oral weekly for 3 times): much higher antitumor activity with favorable toxicity
IC50/EC50 ([2]; Table 10, UOK262): 4.9 nM
IC50/EC50 ([3]; Table 10, UOK151): 4.6 nM

CC[C@@]1(O)C(=O)OCc2c1cc1n(c2=O)Cc2c-1nc1cc3c(cc1c2-c1ccncc1)OCO3 [W-b1, 20 (S)-7-(pyridyl-4-)-FL118 (10,11-methylenedioxy-camptothecin)]
IC50/EC50 [13]: 24.4 nM
IC50/EC50 [14]: 73.4 nM

CC[C@@]1(O)C(=O)OCc2c1cc1n(c2=O)Cc2c-1nc1cc3c(cc1c2-c1cccnc1)OCO3 [W-b2]
antitumor activity [15]: much higher antitumor activity than the other compounds in this Wb-series
IC50/EC50 [13]: 4.6 nM
IC50/EC50 [14]: 2.24 nM

CC[C@@]1(O)C(=O)OCc2c1cc1n(c2=O)Cc2c-1nc1cc3c(cc1c2-c1ccsc1)OCO3 [W-b4]
IC50/EC50 [13]: 31.9 nM
IC50/EC50 [14]: 1.99 nM

CC[C@@]1(O)C(=O)OCc2c1cc1n(c2=O)Cc2c-1nc1cc3c(cc1c2-c1cnn(C)c1)OCO3 [W-b5]
IC50/EC50 [13]: 17.5 nM
IC50/EC50 [14]: 2.29 nM

CC[C@@]1(O)C(=O)OCc2c1cc1n(c2=O)Cc2c-1nc1cc3c(cc1c2-c1ccco1)OCO3 [W-b7]
IC50/EC50 [13]: 0.19 nM
IC50/EC50 [14]: 0.39 nM

CC[C@@]1(O)C(=O)OCc2c1cc1n(c2=O)Cc2c-1nc1cc3c(cc1c2-c1ccc(CO)cc1)OCO3 [W-b9]
IC50/EC50 [13]: 3.49 nM
IC50/EC50 [14]: 1.28 nM

CC[C@@]1(O)C(=O)OCc2c1cc1n(c2=O)Cc2c-1nc1cc3c(cc1c2-c1cc(C(F)(F)F)cc(C(F)(F)F)c1)OCO3 [W-b10/Hx7]
antitumor activity and toxicity, Hx-series ([1]; oral weekly for 3 times): much higher antitumor activity with favorable toxicity
IC50/EC50 ([2]; Table 10, UOK262): 33.4 nM
IC50/EC50 ([3]; Table 10, UOK151): >500 nM
IC50/EC50 [13]: 7.31 nM
IC50/EC50 [14]: 5.29 nM

Nc1ccn([C@@H]2O[C@H](CO)[C@@H](O)C2(F)F)c(=O)n1 [gemcitabine, reference compound]
antitumor efficacy, single agent [16]: only delayed tumor growth

— patent US20250092058A1 (priority 2018, published 2025)
